Data reported in publication PMC8980701 (Neuropharmacology, 2020).
Structures can show the parent of a compound that is named as a salt.

Experiments:
Format in all cases: in vivo, male Sprague-Dawley rats
[1] = Pharmacokinetics in plasma after single s.c. dose, alone or in combination; conditions: for half-life: t1/2; for concentration at 0 h / concentration at 15 min / concentration at 30 min / concentration at 60 min / concentration at 120 min / concentration at 180 min / concentration at 240 min / concentration at 360 min: Plasma concentration
[2] = system: cocaine self-administration; experiment: Cocaine self-administration; conditions: for Active Lever Presses / Inactive Lever Presses: cocaine 0.25 mg/kg/inf, mean ± SEM
cocaine-seeking behavior = experiment: Cocaine-seeking behavior test
[3] = rat plasma, single dose 0.5 mg/kg s.c., drug alone, mean ± SEM
[4] = rat plasma, single dose 1 mg/kg s.c., drug alone, mean ± SEM
[5] = rat plasma, single dose 3 mg/kg s.c., drug alone, mean ± SEM
[6] = lorcaserin 0.5 mg/kg s.c., 15 min pretreatment
[7] = lorcaserin 1 mg/kg s.c., 15 min pretreatment
[8] = male, Sprague-Dawley, rat, in vivo, sc, 0.5 mg/kg
[9] = male, Sprague-Dawley, rat, in vivo, sc, 1 mg/kg
[10] = male, Sprague-Dawley, rat, in vivo, sc, 3 mg/kg
[11] = male, Sprague-Dawley, rat, in vivo, sc, 10 mg/kg
[12] = pimavanserin 3 mg/kg s.c., 30 min pretreatment

`C[C@H]1CNCCc2ccc(Cl)cc21` [Lorcaserin, (1R)-8-chloro-2,3,4,5-tetrahydro-1-methyl-1H-3-benzazepine] showed an AUCExtrap [1, 3] of 12.68 ± 2.45%, a λ [1, 3] of 0.31 ± 0.03 h⁻¹ and an AUCExtrap [1, 4] of 8.06 ± 0.47%. The λ [1, 4] was 0.39 ± 0.02 h⁻¹, the AUCExtrap [1, 5] was 7.97 ± 0.50% and the λ [1, 5] was 0.38 ± 0.01 h⁻¹. The “Effect on cocaine intake (infusions)” value ([2]; acute lorcaserin 1 mg/kg, vs. control, p < 0.05, Fig. 1B) was “suppressed cocaine intake”, the “Active Lever Presses” value [2, 6] was 536.23 ± 16.03 and the “Inactive Lever Presses” value [2, 6] was 2.08 ± 0.40. The “Active Lever Presses” value [2, 7] was 492.46 ± 18.99, the “Inactive Lever Presses” value [2, 7] was 3.00 ± 0.91 and the “Increase of latency to the first response vs. control” value (cocaine-seeking behavior; acute lorcaserin 1 mg/kg) was ~ 6.7 fold. For the same molecule, the “Decrease of cue-reinforced lever presses vs. control” value (shortened to “Decrease”) (cocaine-seeking behavior; acute lorcaserin 1 mg/kg, FA day 10, p < 0.05) was ~ 64.4%, the “Suppression of inactive lever presses vs. control” value (cocaine-seeking behavior; acute lorcaserin 1 mg/kg, p < 0.05) was ~ 64.6% and the “Latency to the first response” value (cocaine-seeking behavior; acute lorcaserin 1 mg/kg, p < 0.05 vs. control (14.39 ± 2.41 s)) was 95.83 ± 35.78 s. The “Suppression of inactive lever presses vs. control” value (cocaine-seeking behavior; repeated lorcaserin 1 mg/kg) was “n.s”, the “Decrease” value (cocaine-seeking behavior; repeated lorcaserin 1 mg/kg twice daily for 10 days, FA day 10, p < 0.05) was ~ 36.4% and the “Latency to the first response” value (cocaine-seeking behavior; repeated lorcaserin 1 mg/kg, n.s. vs. control (14.39 ± 2.41 s)) was 30.15 ± 5.52 s.
Molecule `CC(C)COc1ccc(CNC(=O)N(Cc2ccc(F)cc2)C2CCN(C)CC2)cc1` [Pimavanserin] has an AUC0-inf [1, 8] of 15.02 ± 0.32 ng·h/mL, an AUC0-t [1, 8] of 14.40 ± 0.31 ng·h/mL and an AUCExtrap [1, 8] of 3.89 ± 1.42%. The Cl/F [1, 8] was 556.7 ± 12.2 mL/min/kg, the Cmax [1, 8] was 12.17 ± 0.38 ng/mL and the “Half-life, t1/2” value [1, 8] was 77.4 ± 27 min. The Tmax [1, 8] was 17.4 ± 2.4 min, the λ [1, 8] was 0.76 ± 0.14 h⁻¹ and the Plasma concentration ([1]; male, Sprague-Dawley, rat, in vivo, sc, 0.5 mg/kg, 0 h) was 0.08 ± 0.05 ng/mL. The Plasma concentration ([1]; male, Sprague-Dawley, rat, in vivo, sc, 0.5 mg/kg, 15 min) was 12.15 ± 0.39 ng/mL, the Plasma concentration ([1]; male, Sprague-Dawley, rat, in vivo, sc, 0.5 mg/kg, 30 min) was 9.93 ± 0.50 ng/mL and the Plasma concentration ([1]; male, Sprague-Dawley, rat, in vivo, sc, 0.5 mg/kg, 60 min) was 5.40 ± 0.23 ng/mL. For the same molecule, the Plasma concentration ([1]; male, Sprague-Dawley, rat, in vivo, sc, 0.5 mg/kg, 120 min) was 2.09 ± 0.13 ng/mL, the Plasma concentration ([1]; male, Sprague-Dawley, rat, in vivo, sc, 0.5 mg/kg, 180 min) was 0.86 ± 0.11 ng/mL and the Plasma concentration ([1]; male, Sprague-Dawley, rat, in vivo, sc, 0.5 mg/kg, 240 min) was 0.45 ± 0.10 ng/mL. It also gave a Plasma concentration ([1]; male, Sprague-Dawley, rat, in vivo, sc, 0.5 mg/kg, 360 min) of 0.13 ± 0.06 ng/mL, an AUC0-inf [1, 9] of 41.72 ± 2.7 ng·h/mL and an AUC0-t [1, 9] of 41.27 ± 2.64 ng·h/mL. The AUCExtrap [1, 9] was 1.09 ± 0.28%, the Cl/F [1, 9] was 409.2 ± 30.2 mL/min/kg and the Cmax [1, 9] was 30.13 ± 2.17 ng/mL. For the same molecule, the “Half-life, t1/2” value [1, 9] was 53.4 ± 3 min, the λ [1, 9] was 0.79 ± 0.04 h⁻¹ and the Plasma concentration ([1]; male, Sprague-Dawley, rat, in vivo, sc, 1 mg/kg, 0 h) was 0.05 ± 0.03 ng/mL. The Plasma concentration ([1]; male, Sprague-Dawley, rat, in vivo, sc, 1 mg/kg, 15 min) was 30.13 ± 2.17 ng/mL, the Plasma concentration ([1]; male, Sprague-Dawley, rat, in vivo, sc, 1 mg/kg, 30 min) was 24.50 ± 1.59 ng/mL and the Plasma concentration ([1]; male, Sprague-Dawley, rat, in vivo, sc, 1 mg/kg, 60 min) was 16.8 ± 1.02 ng/mL. For the same molecule, the Plasma concentration ([1]; male, Sprague-Dawley, rat, in vivo, sc, 1 mg/kg, 120 min) was 6.34 ± 0.39 ng/mL, the Plasma concentration ([1]; male, Sprague-Dawley, rat, in vivo, sc, 1 mg/kg, 180 min) was 3.55 ± 0.81 ng/mL and the Plasma concentration ([1]; male, Sprague-Dawley, rat, in vivo, sc, 1 mg/kg, 240 min) was 1.12 ± 0.14 ng/mL. For the same molecule, the Plasma concentration ([1]; male, Sprague-Dawley, rat, in vivo, sc, 1 mg/kg, 360 min) was 0.35 ± 0.08 ng/mL, the AUCExtrap [1, 10] was 4.26 ± 0.68% and the λ [1, 10] was 0.59 ± 0.03 h⁻¹. It also gave an AUC0-inf ([1]; male, Sprague-Dawley, rat, in vivo, sc, 3 mg/kg, AUC0-inf) of 198 ± 8.33 ng·h/mL, an AUC0-t ([1]; male, Sprague-Dawley, rat, in vivo, sc, 3 mg/kg, AUC0-t) of 189 ± 7.75 ng·h/mL and a Cmax ([1]; male, Sprague-Dawley, rat, in vivo, sc, 3 mg/kg, CMAX) of 79.5 ± 3.76 ng/mL. It also gave a CL/F [1, 10] of 255 mL/min/kg, a half-life ([1]; male, Sprague-Dawley, rat, in vivo, sc, 3 mg/kg, Half-life) of 70.8 ± 3 min and a concentration at 0 h [1, 10] of 0.02 ± 0.02 ng/mL. For the same molecule, the concentration at 15 min [1, 10] was 71.1 ± 5.89 ng/mL, the concentration at 30 min [1, 10] was 74.5 ± 5.1 ng/mL and the concentration at 60 min [1, 10] was 63.4 ± 3.59 ng/mL. The concentration at 120 min [1, 10] was 39.8 ± 2.4 ng/mL, the concentration at 180 min [1, 10] was 27.8 ± 2.37 ng/mL and the concentration at 240 min [1, 10] was 15.7 ± 1.48 ng/mL. The concentration at 360 min [1, 10] was 4.85 ± 0.62 ng/mL, the Tmax ([1]; male, Sprague-Dawley, rat, in vivo, sc, 3 mg/kg, TMAX) was 22.8 ± 3.6 min and the AUCExtrap [1, 11] was 32.22 ± 4.18%. For the same molecule, the λ [1, 11] was 0.21 ± 0.02 h⁻¹, the AUC0-inf ([1]; male, Sprague-Dawley, rat, in vivo, sc, 10 mg/kg, AUC0-inf) was 1290 ± 112 ng·h/mL and the AUC0-t ([1]; male, Sprague-Dawley, rat, in vivo, sc, 10 mg/kg, AUC0-t) was 858 ± 54.7 ng·h/mL. It also gave a Cmax ([1]; male, Sprague-Dawley, rat, in vivo, sc, 10 mg/kg, CMAX) of 213 ± 15.9 ng/mL, a CL/F [1, 11] of 135 mL/min/kg and a half-life ([1]; male, Sprague-Dawley, rat, in vivo, sc, 10 mg/kg, Half-life) of 218 ± 32.4 min. For the same molecule, the concentration at 0 h [1, 11] was 0.09 ± 0.41 ng/mL, the concentration at 15 min [1, 11] was 170 ± 18.8 ng/mL and the concentration at 30 min [1, 11] was 190 ± 19.9 ng/mL. For the same molecule, the concentration at 60 min [1, 11] was 208 ± 15.6 ng/mL, the concentration at 120 min [1, 11] was 179 ± 11.6 ng/mL and the concentration at 180 min [1, 11] was 154 ± 15.1 ng/mL. For the same molecule, the concentration at 240 min [1, 11] was 116 ± 7.99 ng/mL, the concentration at 360 min [1, 11] was 79.9 ± 6.24 ng/mL and the Tmax ([1]; male, Sprague-Dawley, rat, in vivo, sc, 10 mg/kg, TMAX) was 57.6 ± 15 min. For the same molecule, the Tmax ([1]; male, Sprague-Dawley, rat, in vivo, sc, TMAX) was 15 to 60 min, the half-life ([1]; male, Sprague-Dawley, rat, in vivo, sc) was 53 to 218 min and the “Effect on cocaine infusions” value ([2]; acute pimavanserin 0.3, 1, 3 mg/kg, vs. control, Fig. 1A) was “No main effect”. For the same molecule, the “Active Lever Presses” value [2, 12] was 523.00 ± 54.57, the “Inactive Lever Presses” value [2, 12] was 3.44 ± 1.74 and the “Effect on inactive lever presses” value (cocaine-seeking behavior; acute and repeated pimavanserin 3 mg/kg, FA day 10) was “No main effect”. The “Decrease” value (cocaine-seeking behavior; acute pimavanserin 3 mg/kg, FA day 10, p < 0.05) was ~ 41.4%, the “Latency to the first response” value (cocaine-seeking behavior; acute pimavanserin 3 mg/kg, n.s. vs. control (14.39 ± 2.41 s)) was 29.83 ± 5.43 s and the “Increase of latency to the first response vs. control” value (cocaine-seeking behavior; repeated pimavanserin 3 mg/kg) was ~ 2.5 fold. The “Decrease” value (cocaine-seeking behavior; repeated pimavanserin 3 mg/kg twice daily for 10 days, FA day 10, p < 0.05) was ~ 27.1% and the “Latency to the first response” value (cocaine-seeking behavior; repeated pimavanserin 3 mg/kg, p < 0.05 vs. control (14.39 ± 2.41 s)) was 35.25 ± 7.81 s.
With `Cc1cc2c(cc1Cl)N(C(=O)Nc1ccc(Oc3cccnc3C)nc1)CC2` [SB242084, 6-chloro-5-methyl-1-[[2-(2-methylpyrid-3-yloxy)pyrid-5-yl]carbamoyl] indolinedihydrochloride] the “Effect on lorcaserin-evoked suppression of cocaine intake” value ([2]; SB242084 0.5 mg/kg i.p. plus lorcaserin 1 mg/kg, p < 0.05, Fig. 1B) was “prevented this lorcaserin-evoked suppression of cocaine intake”.
